Laboratory results reported in PMC5882934, “Acute metabolic actions of the major polyphenols in chamomile: an in vitro mechanistic study on their potential to attenuate postprandial hyperglycaemia” (Scientific Reports, 2018).
In brackets after ≈: the same amount, converted by molar mass. Where two headings read alike, the source gives them in different places. Blank lines part the entries; values can stand above or below the molecule they belong to.

Assays:
[1] = target: T1, GLUT2 (Homo sapiens, UniProt P11168); test: D-[U-14C]-glucose transport across Caco-2/TC7 monolayers under Na+-free conditions (only GLUT2 active); format: cell-based; conditions: for apparent increase in inhibitory activity under Na+-free conditions: versus Na+ present
T1 construct: endogenous in cells; host or cells: Caco-2/TC7
T1 sequence (P11168 1-524): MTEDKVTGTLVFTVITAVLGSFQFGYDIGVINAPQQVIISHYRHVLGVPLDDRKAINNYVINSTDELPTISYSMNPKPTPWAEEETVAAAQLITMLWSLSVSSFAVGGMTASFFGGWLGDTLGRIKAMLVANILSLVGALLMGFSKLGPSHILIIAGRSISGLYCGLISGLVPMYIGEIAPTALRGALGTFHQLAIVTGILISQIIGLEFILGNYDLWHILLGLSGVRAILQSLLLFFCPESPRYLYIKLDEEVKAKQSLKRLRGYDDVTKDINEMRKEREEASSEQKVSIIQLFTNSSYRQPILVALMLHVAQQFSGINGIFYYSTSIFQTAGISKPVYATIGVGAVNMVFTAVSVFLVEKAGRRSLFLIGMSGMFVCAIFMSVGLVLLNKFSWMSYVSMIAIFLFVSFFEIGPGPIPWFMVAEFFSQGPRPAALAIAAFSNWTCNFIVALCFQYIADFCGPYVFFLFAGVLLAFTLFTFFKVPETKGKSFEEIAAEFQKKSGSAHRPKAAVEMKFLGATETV
Excerpt: To dissect the mechanism of inhibition of glucose transport, we conducted D-[U-^14C]-glucose transport experiments under Na^+-free conditions where only GLUT2, and not SGLT1, is active. […] When tested in combination under Na^+-free conditions, apigenin 7-O-glucoside and apigenin (Fig. 6C-3) were responsible for ~80% of the inhibitory activity observed by the whole ChE (p < 0.05) (Fig. 6C-4).
Since the main inhibition we found was on GLUT2, we investigated the binding affinities of apigenin and apigenin 7-O-glucoside. […] This was also confirmed by functional assays where the rate of D-[U-^14C]-glucose transport under Na^+-free conditions was the same from apical to basolateral compartments and vice versa (Fig. 7B). Inhibition constants for the exofacial glucose transporter inhibitor 4,6-O-ethylidene glucose and the endofacial glucose transporter inhibitor cytochalasin B on basolateral to apical D-[U-^14C]-glucose transport were compared to those for apigenin and apigenin 7-O-glucoside (Fig. 7C–E). […] This comparison is made assuming that the position of GLUT2 is the same when facing the apical and the intracellular space, which seems to hold based on the rate of D-[U-^14C]-glucose transport across the monolayers in both directions.
(§1) Caco-2/TC7 cells were cultured and transport experiments performed as fully described before.

[2] = target: T2, human α-amylase (Homo sapiens, UniProt P0DUB6); test: human α-amylase inhibition assay; format: biochemical; conditions: for maximum inhibition of human α-amylase: individual (poly)phenol, maximum value of dose response, p < 0.05; for Ki: Dixon plot, intercept = -Ki
T2 sequence (P0DUB6 16-511): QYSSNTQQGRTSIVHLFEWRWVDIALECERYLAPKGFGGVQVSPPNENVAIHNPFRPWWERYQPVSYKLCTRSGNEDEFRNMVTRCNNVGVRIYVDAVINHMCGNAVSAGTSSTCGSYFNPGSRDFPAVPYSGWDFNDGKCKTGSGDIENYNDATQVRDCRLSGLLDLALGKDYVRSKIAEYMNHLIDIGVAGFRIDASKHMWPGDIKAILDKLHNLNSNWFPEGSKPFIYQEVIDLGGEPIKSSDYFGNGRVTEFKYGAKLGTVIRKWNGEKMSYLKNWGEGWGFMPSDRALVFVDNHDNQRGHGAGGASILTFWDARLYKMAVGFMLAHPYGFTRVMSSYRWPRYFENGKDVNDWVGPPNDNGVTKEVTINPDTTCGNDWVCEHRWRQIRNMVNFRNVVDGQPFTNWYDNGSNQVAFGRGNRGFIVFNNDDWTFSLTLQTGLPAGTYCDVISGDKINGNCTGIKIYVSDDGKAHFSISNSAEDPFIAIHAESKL
Protocol: The human α-amylase and rat α-glucosidase inhibition assays were performed under optimised conditions as previously reported[3],[18],[52]. The ChE stock solution was dissolved in DMSO while the individual (poly)phenols were prepared in a water-EtOH solution (50:50, v/v).

[3] = test system: Caco-2/TC7 cells; test: D-[U-14C]-glucose transport across Caco-2/TC7 cell monolayers in the presence of Na+; format: cell-based; conditions: for effect on D-[U-14C]-glucose transport: data not shown
Excerpt: (§2) Caco-2/TC7 cells transported 0.08 mmol of D-[U-^14C]-glucose from the apical to the basolateral compartment across the cell monolayers in the presence of Na^+, where the sugar transporter Na^+/glucose co-transporter 1 (SGLT1) is active, in addition to the facilitated transporters GLUT2 and GLUT5 (Fig. 6A-1). D-[U-^14C]-sucrose must first be hydrolysed by brush border sucrase and the resulting products, fructose and glucose, are transported into and across the cells.
as §1

[4] = test system: Caco-2/TC7 cells; test: D-[U-14C]-sucrose transport across Caco-2/TC7 cell monolayers; format: cell-based; conditions: data not shown
Excerpt: as §2, §1

[5] = test system: Caco-2/TC7 cells; test: D-[U-14C]-fructose transport across Caco-2/TC7 cell monolayers; format: cell-based; conditions: data not shown
Excerpt: as §2, §1

[6] = enzymatic hydrolysis by digestive hydrolytic enzymes (hesperidinase, acetone rat intestinal extract); format: in vitro ADME
Protocol: Supplementary S3. Enzymatic hydrolysis of Kaempferol 3-O-glucoside (positive control) and (E)-MCAG. (A) Kaempferol 3-O-glucoside standard (300 µM). (B) Kaempferol standard (100 uM). (C) Kaempferol 3-O-glucoside hydrolysed with hesperidinase. (D) Kaempferol 3-O-glucoside hydrolysed with acetone rat intestinal extract. (E) Kaempferol 3-O-glucoside hydrolysed with pancreatin. (F) (E)-MCAG (500 µM) hydrolysed with hesperidinase. (G) (E)-MCAG (500 µM) hydrolysed hydrolysed with acetone rat intestinal extract. The enzymatic hydrolysis were conducted with 50 mg/mL of the respective enzyme for 3 h at 37 °C.

[7] = target: T2, human α-amylase; design: method as in doi:10.1016/j.jff.2015.10.003; conditions: strong (poly)phenol inhibitors, arbitrarily defined; cited from earlier work
[8] = design: method as in PMID 12086760, PMID 12876091; conditions: population with impaired glucose tolerance; cited from earlier work
[9] = test system: Caco-2/TC7 cells; test: conversion of apigenin 7-O-glucoside to apigenin by differentiated Caco-2/TC7 cells; format: in vitro ADME; conditions: 150 µM, 25 and 60 min
Protocol: Glycosylated (poly)phenols can be hydrolysed by luminal β-glucosidase enzymes, such as lactase phlorizin hydrolase[19],[20], present in the brush border of the enterocytes, resulting in the release of the aglycone. Therefore, we explored the possibility whether the inhibition observed by apigenin-7-O-glucoside was due to the presence of apigenin after enzymic hydrolysis. Caco-2/TC7 cells were incubated with 150 µM apigenin 7-O-glucoside for 25 and 60 min. In vitro conversion of apigenin 7-O-glucoside to apigenin in Caco2/TC7 cells was negligible (Supplementary S5) confirming that apigenin 7-O-glucoside can interact directly with GLUT2 transporter protein.
Cells were seeded at 2.4 × 10^5 cells/well on 6-well plates (Corning, Appleton Woods, UK) and cultured for 21–23 d at 37 °C as described above. Cells were exposed to 150 μM of apigenin 7-O-glucoside for 25 and 60 min. After the treatment the medium was collected and analysed by HPLC as detailed above.

[10] = target: yeast α-glucosidase; conditions: cited from earlier work
[11] = test system: rat intestinal α-glucosidase; design: method as in PMID 28422509; conditions: p-nitrophenyl-glucopyranoside substrate; cited from earlier work
[12] = solubility limit in enzyme assay; format: physicochemical
[13] = test system: GLUT1; design: method as in PMID 26238658; conditions: cited from earlier work
[14] = test system: GLUT1; design: method as in PMID 24932809; conditions: cited from earlier work
[15] = target: maltase-glucoamylase; design: method as in PMID 18681440; conditions: cited from earlier work
[16] = target: sucrase-isomaltase; design: method as in PMID 18681440; conditions: cited from earlier work

- fold lower inhibition of transport basolateral to apical versus apical to basolateral ([1]; Na+-free): 3 fold
- IC50 ([1]; Na+-free, apical to basolateral, read-out: a → b IC50): 15000 µM
Structure (SMILES): CC1OC[C@H]2O[C@H](O)[C@H](O)[C@@H](O)[C@@H]2O1 (some centres unmarked) [4,6-ethylidine glucose, 4,6-O-ethylidene glucose, reference compound]

- maximum inhibition of human α-amylase [2]: ~ 20%
- substrate for rat intestinal enzymes [6]: not a substrate
- resistance to digestive hydrolytic enzymes ([6]; 500 µM, 50 mg/mL enzyme, 3 h at 37 °C): resistant
Structure (SMILES): COc1ccc(/C=C/C(=O)O)c(O[C@@H]2O[C@H](CO)[C@@H](O)[C@H](O)[C@H]2O)c1 [(E)-MCAG, (E)−2-β-D-Glucopyranosyloxy-4-methoxycinnamic acid]
- effect on D-[U-14C]-glucose transport [3]: no effect
- effect on D-[U-14C]-sucrose transport [4]: no effect
- effect on D-[U-14C]-fructose transport [5]: no effect

- maximum inhibition of human α-amylase [2]: ~ 25%
Structure (SMILES): COc1ccc(/C=C\C(=O)O)c(OC2O[C@H](CO)[C@@H](O)[C@H](O)[C@H]2O)c1 (stereo partly drawn) [(Z)-MCAG, (Z)-2-D-Glucopyranosyloxy-4-methoxycinnamic acid]
- effect on D-[U-14C]-glucose transport [3]: no effect
- effect on D-[U-14C]-sucrose transport [4]: no effect
- effect on D-[U-14C]-fructose transport [5]: no effect

Structure (SMILES): C=C1[C@@H](C)[C@H]2[C@H](Cc3ccccc3)NC(=O)[C@]23OC(=O)/C=C/[C@H](O)CCC[C@@H](C)C/C=C/[C@H]3[C@@H]1O [Cytochalasin B, cytochalasin B, reference compound]
- IC50 ([1]; a → b IC50, Na+-free, apical to basolateral): 2.3 µM
- IC50 ([1]; b → a IC50, Na+-free, basolateral to apical): 7.6 µM

Structure (SMILES): O=C(O[C@@H]1Cc2c(O)cc(O)cc2O[C@@H]1c1cc(O)c(O)c(O)c1)c1cc(O)c(O)c(O)c1 [EGCG]
- IC50 [7]: < 100 µM

Structure (SMILES): C[C@H]1O[C@H](O[C@H]2[C@H](O)[C@@H](O)[C@@H](O[C@H]3[C@H](O)[C@@H](O)C(O)O[C@@H]3CO)O[C@@H]2CO)[C@H](O)[C@@H](O)[C@@H]1N[C@H]1C=C(CO)[C@@H](O)[C@H](O)[C@H]1O (some centres unmarked) [acarbose]
- reduction of the risk of cardiovascular events [8]: 49%
- reduction of the risk of type 2 diabetes [8]: 25%

- Ki [2]: 17 ± 4 µM
- fold lower inhibition of human α-amylase than apigenin ([2]; in vitro results): ~ 10 fold
- fold lower inhibition of transport basolateral to apical versus apical to basolateral ([1]; Na+-free): 3 fold
- apparent increase in inhibitory activity under Na+-free conditions [1]: ~ 50%
- in vitro conversion to apigenin [9]: negligible
Structure (SMILES): O=c1cc(-c2ccc(O)cc2)oc2cc(O[C@@H]3O[C@H](CO)[C@@H](O)[C@H](O)[C@H]3O)cc(O)c12 [apigenin 7-O-glucoside, apigenin-7-O-glucoside]
- IC50 yeast α-glucosidase [10]: 29.7 µg/mL (≈ 68.7 µM)
- inhibition of rat intestinal α-glucosidase activity [11]: inhibited

- fold increase in inhibitory activity on human α-amylase versus apigenin 7-O-glucoside [2]: ~ 10 fold
- Ki [2]: 146 ± 39 µM
- fold lower inhibition of transport basolateral to apical versus apical to basolateral ([1]; Na+-free): 3 fold
- apparent increase in inhibitory activity under Na+-free conditions [1]: ~ 50%
Structure (SMILES): O=c1cc(-c2ccc(O)cc2)oc2cc(O)cc(O)c12 [apigenin]
- fold higher effect than apigenin 7-O-glucoside at equivalent concentrations ([3]; D-[U-14C]-glucose and D-[U-14C]-sucrose transport, apigenin 50 µM): 3 fold
- solubility [12]: limited solubility prohibited testing at concentrations >50 µM
- IC50 [10]: 22 µM
- IC50 yeast α-glucosidase [10]: 25.5 µg/mL (≈ 94.4 µM)
- inhibition of yeast α-glucosidase ([10]; p-nitrophenyl-glucopyranoside substrate): did not inhibit
- GLUT1 expression [13]: lowered
- GLUT1 expression [14]: lowered

Structure (SMILES): O=c1ccc2cc(O)c(O)cc2o1 [esculetin]
- IC50 [15]: 534 µM
- IC50 [16]: 72 µM

Structure (SMILES): O=c1cc(-c2ccc(O)c(O)c2)oc2cc(O)cc(O)c12 [luteolin]
- IC50 [7]: < 100 µM

Structure (SMILES): O=c1c(O)c(-c2ccc(O)c(O)c2)oc2cc(O)cc(O)c12 [quercetin]
- IC50 [7]: < 100 µM
- IC50 [15]: 216 µM
- IC50 [16]: 71 µM
